Measured values published in patent US7649007B2, “Oxazolidine derivatives as PR modulators” (Wyeth LLC, priority 2006, dated 2010).

Tests used:
[1] = target: T1, progesterone receptor (alkaline phosphatase activity in T47D cells) (Homo sapiens, UniProt P06401); assay: Effects of progestins and antiprogestins on alkaline phosphatase activity in T47D cells (antagonist mode); format: cell-based; details: in the presence of 1 nM progesterone; for IC50: 24 h
T1 construct: determining a compound's effect on alkaline phosphatase activity in T47D cells; endogenous in cells; host or cells: T47D cells
T1 sequence (P06401 1-933): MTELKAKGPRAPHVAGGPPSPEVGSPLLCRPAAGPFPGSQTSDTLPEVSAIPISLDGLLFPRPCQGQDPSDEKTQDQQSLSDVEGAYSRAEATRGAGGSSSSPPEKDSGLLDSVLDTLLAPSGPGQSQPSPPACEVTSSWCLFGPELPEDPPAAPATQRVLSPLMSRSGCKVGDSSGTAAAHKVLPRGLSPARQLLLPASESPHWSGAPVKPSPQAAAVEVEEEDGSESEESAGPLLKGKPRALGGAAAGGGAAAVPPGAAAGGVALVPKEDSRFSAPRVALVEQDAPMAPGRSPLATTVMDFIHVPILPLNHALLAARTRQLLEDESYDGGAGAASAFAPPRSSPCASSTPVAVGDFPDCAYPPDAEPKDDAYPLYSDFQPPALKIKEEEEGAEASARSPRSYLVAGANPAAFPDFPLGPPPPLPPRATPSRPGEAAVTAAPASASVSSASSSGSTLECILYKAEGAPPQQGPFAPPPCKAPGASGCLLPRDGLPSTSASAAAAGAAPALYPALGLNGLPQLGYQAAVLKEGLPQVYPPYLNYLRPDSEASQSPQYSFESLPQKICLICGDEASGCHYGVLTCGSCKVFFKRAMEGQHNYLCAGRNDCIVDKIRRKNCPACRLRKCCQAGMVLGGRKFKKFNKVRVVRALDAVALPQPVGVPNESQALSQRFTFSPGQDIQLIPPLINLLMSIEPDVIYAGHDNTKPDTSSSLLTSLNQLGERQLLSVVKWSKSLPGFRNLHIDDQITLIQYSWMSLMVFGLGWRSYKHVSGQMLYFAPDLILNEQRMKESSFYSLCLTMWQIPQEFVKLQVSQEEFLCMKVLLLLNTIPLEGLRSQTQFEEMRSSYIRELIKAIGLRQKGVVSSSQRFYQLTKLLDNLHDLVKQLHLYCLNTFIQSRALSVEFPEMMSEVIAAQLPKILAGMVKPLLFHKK
Method: (1) Effects of Progestins and Antiprogestins on Alkaline Phosphatase Activity in T47D Cells.
PURPOSE: To identify progestins or antiprogestins by determining a compound's effect on alkaline phosphatase activity in T47D cells.
Culture medium: • DMEM:F12 (1:1) (GIBCO, BRL) supplemented with 5% (v/v) charcoal stripped fetal bovine serum (not heat-inactivated), 100 U/mL penicillin, 100 μg/mL streptomycin, and 2 mM the GlutaMax™ reagent (GIBCO, BRL).
Alkaline phosphatase assay buffer: • I. 0.1M Tris-HCl, pH 9.8, containing 0.2% the Triton® X-100 reagent • II. 0.1M Tris-HCl, pH 9.8, containing 4 mM p-nitrophenyl phosphate (Sigma). B. Cell Culture and Treatment:
Frozen T47D cells were thawed in a 37° C. water bath and diluted to 280,000 cells/mL in culture medium. To each well in a 96-well plate (Falcon, Becton Dickinson Labware), 180 μL of diluted cell suspension was added.
Twenty μL of reference or test compounds diluted in the culture medium was then added to each well. When testing for progestin antagonist activity, reference antiprogestins or test compounds were added in the presence of 1 nM progesterone. The cells were incubated at 37° C. in a 5% CO2/humidified atmosphere for 24 h.
NOTE: For high throughput screening, one concentration of each compound was tested at 0.3 μg/mL. Based on an average molecular weight of 300 g/mol for the compounds in the library, the concentration was approximately 1 μM. Subsequently, active compounds were tested in dose response assays to determine EC50 and IC50. C. Alkaline Phosphatase Enzyme Assay:
At the end of treatment, the medium was removed from the plate. Fifty μL of assay buffer I was added to each well. The plates were shaken in a titer plate shaker for 15 min. Then 150 μL of assay buffer II was added to each well. Optical density measurements were taken at 5 min intervals for 30 min at a test wavelength of 405 nm.
For reference and test compounds, a dose response curve was generated for dose (X-axis) vs. the rate of enzyme reaction (slope) (Y-axis). Square root-transformed data was used for analysis of variance and nonlinear dose response curve fitting for both agonist and antagonist modes. Huber weighting was used to down-weight the effects of outliers. EC50 or IC50 values were calculated from the retransformed values. JMP software (SAS Institute, Inc.) was used for both one-way analysis of variance and non-linear dose response analysis in both single dose and dose response studies.
Progesterone and trimegestone were reference progestins and RU486 was the reference antiprogestin. All reference compounds were run in full dose response curves and the EC50 and IC50 values were calculated.

| SMILES | melting point [°C] | IC50 [1] [µM] | inhibition at 3 µM ([1]; at 3000 nM) [%] |
| --- | --- | --- | --- |
| CC1(C)COC(=O)N1c1nc(-c2cccc(C#N)c2)cs1 [Example 3, 3-[2-(4,4-dimethyl-2-oxo-1,3-oxazolidin-3-yl)-1,3-thiazol-4-yl]benzonitrile] | 181 to 183 | – | – |
| C[C@@H]1COC(=O)N1c1nc(-c2ccc(Br)cc2)cs1 [Example 1, (4R)-3-[4-(4-Bromophenyl)-1,3-thiazol-2-yl]-4-methyl-1,3-oxazolidin-2-one] | 197 to 199 | – | – |
| CCC1(CC)COC(=O)N1c1nc(-c2ccc(C#N)cc2)cs1 [Example 2, 4-[2-(4,4-Diethyl-2-oxo-1,3-oxazolidin-3-yl)-1,3-thiazol-4-yl]benzonitrile] | 145 to 147 | – | – |
| CC1(C)CO/C(=N\S(C)(=O)=O)N1c1nc(-c2ccc(C#N)cc2)cs1 [Example 6, N-{(2Z)-3-[4-(4-Cyanophenyl)-1,3-thiazol-2-yl]-4,4-dimethyl-1,3-oxazolidin-2-ylidene}methanesulfonamide] | – | – | 100 |

Next, values leading:

| melting point [°C] | IC50 [1] [µM] | inhibition at 3 µM ([1]; at 3000 nM) [%] | SMILES |
| --- | --- | --- | --- |
| – | 0.0108 | – | CC(=O)/N=C1\OCC(C)(C)N1c1nc(-c2ccc(C#N)cc2)cs1 [Example 7, N-{(2Z)-3-[4-(4-Cyanophenyl)-1,3-thiazol-2-yl]-4,4-dimethyl-1,3-oxazolidin-2-ylidene}acetamide] |
| – | 0.0644 | – | CC1(C)CO/C(=N\C#N)N1c1nc(-c2ccc(C#N)cc2)cs1 [Example 5, {(2Z)-3-[4-(4-cyanophenyl)-1,3-thiazol-2-yl]-4,4-dimethyl-1,3-oxazolidin-2-ylidene}cyanamide] |
| 158 to 161 | 0.0534 | – | CC1(C)COC(=N)N1c1nc(-c2ccc(C#N)cc2)cs1 [Example 4, 4-[2-(2-imino-4,4-dimethyl-1,3-oxazolidin-3-yl)-1,3-thiazol-4-yl]benzonitrile] |
